We go through two molecules from paper PMC4486022 (Cell reports, 2014).

Test [1] concerns the target T1, yIre1 (recombinant yeast IRE1) (Saccharomyces cerevisiae, UniProt P32361).
T1 sequence (P32361 641-1115 limits assumed): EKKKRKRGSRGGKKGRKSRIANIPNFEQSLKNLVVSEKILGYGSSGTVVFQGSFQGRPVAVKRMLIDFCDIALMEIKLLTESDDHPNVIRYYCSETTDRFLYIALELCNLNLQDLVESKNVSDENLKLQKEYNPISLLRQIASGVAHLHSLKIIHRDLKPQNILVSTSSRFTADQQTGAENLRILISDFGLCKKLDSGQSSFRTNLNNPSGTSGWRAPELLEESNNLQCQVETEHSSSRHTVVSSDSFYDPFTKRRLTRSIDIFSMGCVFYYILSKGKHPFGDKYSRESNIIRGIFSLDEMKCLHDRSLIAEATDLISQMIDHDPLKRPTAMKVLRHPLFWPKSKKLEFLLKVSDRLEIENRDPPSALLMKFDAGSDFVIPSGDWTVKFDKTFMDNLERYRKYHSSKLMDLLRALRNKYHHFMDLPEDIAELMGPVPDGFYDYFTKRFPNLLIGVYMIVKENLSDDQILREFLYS
The test can be described thus: in vitro RNase assay, HAC1 and BLOS1 RNA cleavage. The class given is biochemical. As to conditions: activator, 100 μM, 1 μM yIre1; Q site at kinase/RNase interface.

Test [2] has as its target T1, yIre1 (recombinant yeast IRE1). The test can be described thus: in vitro RNase assay, radiolabeled HAC1 RNA cleavage. The class given is biochemical.

As to `O=c1c(O)c(-c2ccc(O)c(O)c2)oc2cc(O)cc(O)c12` [quercetin], the “in vitro RNase assay, HAC1 and BLOS1 RNA cleavage (activation)” value in test [1] is on record as “binding of Q to Ire1 was sufficient to promote cleavage of RIDD substrate RNA”. By IC50 is commonly meant the concentration at which inhibition is half-maximal. Turning to `O=S(=O)(N=Cc1c(O)ccc2ccccc12)c1cccs1` [STF-083010], in test [2], the IC50 was roughly 30 µM.
